Key:
Tetranychus urticae = Tetranychus urticae spray test, OP-resistant (TETRUR); assay type: in vivo; settings: after 6 days
Protocol: Tetranychus urticae—Spray Test, OP-Resistant (TETRUR)
• Solvent: 78.0 parts by weight of acetone • 1.5 parts by weight of dimethylformamide • Emulsifier: 0.5 part by weight of alkylaryl polyglycol ether
To produce an appropriate active ingredient formulation, 1 part by weight of active ingredient is mixed with the specified amounts of solvent and emulsifier, and the concentrate is diluted to the desired concentration with emulsifier-containing water.
Discs of bean leaves (Phaseolus vulgaris) infested by all stages of the greenhouse red spider mite (Tetranychus urticae) are sprayed with an active ingredient formulation of the desired concentration.
After 6 days, the efficacy in % is determined 100% means that all the spider mites have been killed; 0% means that none of the spider mites have been killed.

[1] = log P by HPLC (OECD Guideline 117), method [b] neutral range; assay type: physicochemical; settings: HPLC; for logP[b]: method [b] neutral range; for chromatographic logP: reversed-phase C18 HPLC column, neutral range, pH 7.8
Protocol: (§1) The log P values were determined analogously to OECD Guideline 117 (EC Directive 92/69/EEC) by HPLC (high-performance liquid chromatography) using reversed-phase columns (C 18), by the following methods:
[b] The LC-MS determination in the neutral range is effected at pH 7.8 with 0.001 molar aqueous ammonium hydrogencarbonate solution and acetonitrile as eluents; linear gradient from 10% acetonitrile to 95% acetonitrile.

[2] = log P by HPLC (OECD Guideline 117), method [a] acidic range; assay type: physicochemical; settings: for logP[a]: HPLC, method [a] acidic range
Protocol: as §1
[a] The LC-MS determination in the acidic range is effected at pH 2.7 with 0.1% aqueous formic acid and acetonitrile (contains 0.1% formic acid) as eluents; linear gradient from 10% acetonitrile to 95% acetonitrile.

[3] = reversed-phase C18 HPLC column, pH 2.7, HPLC, acidic range, pH 2.7, read-out: log P[a]
[4] = reversed-phase C18 HPLC column, pH 2.7, HPLC method [a], acidic range, read-out: logP[a]

Compound | logP[b] [1] | logP[a] [2] | also measured
C=CCSc1nn(-c2cc(SCC(F)(F)F)c(C)cc2F)c(=O)n1C [Example 290] | 3.56 | 3.62 | efficacy (Tetranychus urticae; application rate of 500 g/ha): 100%
COC1=CC(=O)N(c2ccc(Cl)c([S+]([O-])CC(F)(F)F)c2)C1 (racemic) [Example 315] | 2.23 | 2.24 | efficacy (Tetranychus urticae; application rate of 500 g/ha): 90%
Cc1ccc(-n2nc(OCC(C)(C)C)n(C)c2=O)cc1[S+]([O-])CC(F)(F)F (stereo not drawn) [Example 162] | 3.57 | 3.67 | efficacy (Tetranychus urticae; application rate of 500 g/ha): 90%
C=C(C)CCOc1nn(-c2cc([S+]([O-])CC(F)(F)F)c(C)cc2F)c(=O)n1C1CC1 (stereo not drawn) [Example 137] | 3.17 | 3.25 | efficacy (Tetranychus urticae; application rate of 500 g/ha): 90%
Cc1cc(F)c(-n2nc(OCc3ccccc3)n(C3CC3)c2=O)cc1SCC(F)(F)F [Example 410] | 4.25 | 4.32 | efficacy (Tetranychus urticae; application rate of 500 g/ha): 100%
Cc1cc(F)c(-n2nc(CC(C)C)n(C3CC3)c2=O)cc1[S+]([O-])CC(F)(F)F (racemic) [Example 84] | 2.80 | 2.86 | efficacy (Tetranychus urticae; application rate of 500 g/ha): 100%
CCOc1nn(-c2cc([S+]([O-])CC(F)(F)F)c(C)cc2F)c(=O)n1C1CC1 (stereo not drawn) [Example 121] | 2.43 | 2.47 | efficacy (Tetranychus urticae; application rate of 500 g/ha): 100%
CCCSc1nn(-c2cc([S+]([O-])CC(F)(F)F)c(C)cc2F)c(=O)n1C (stereo not drawn) [Example 278] | 2.74 | 2.80 | efficacy (Tetranychus urticae; application rate of 500 g/ha): 100%
CCOC1=CC(=O)N(c2cc([S+]([O-])CC(F)(F)F)c(C)cc2F)C1 (stereo not drawn) [Example 334] | 2.14 | 2.19 | efficacy (Tetranychus urticae; application rate of 20 g/ha): 90%
COc1nn(-c2ccc(Br)c(SCC(F)(F)F)c2)c(=O)n1C [Example 168] | 3.54 | 3.60 | –
COCCOc1nn(-c2cc(SCC(F)(F)F)c(C)cc2F)c(=O)n1C [Example 149] | 2.76 | 2.83 | efficacy (Tetranychus urticae; application rate of 500 g/ha): 100%
Cc1cc(C)c(-n2ncn(Cc3ccccc3)c2=O)cc1SCC(F)(F)F [Example 373] | 3.47 | 3.55 | –
CCCCn1c(C(F)(F)F)nn(-c2cc([S+]([O-])CC(F)(F)F)c(C)cc2F)c1=O (stereo not drawn) [Example 365] | 3.54 | 3.61 | efficacy (Tetranychus urticae; application rate of 500 g/ha): 100%
CCCSc1nn(-c2cc(SCC(F)(F)F)c(C)cc2F)c(=O)n1CC [Example 426] | 4.29 | 4.37 | –
Cc1cc(F)c(-n2nc(Br)n(Cc3ccccc3)c2=O)cc1[S+]([O-])CC(F)(F)F (stereo not drawn) [Example 443] | 3.00 | 3.08 | –
COc1nn(-c2ccc(C(F)(F)F)c([S+]([O-])CC(F)(F)F)c2)c(=O)n1C1CC1 (stereo not drawn) [Example 147] | 3.19 | 3.27 | –
COC(=O)c1nn(-c2cc(SSc3cc(-n4nc(C(=O)OC)n(C(C)C)c4=O)c(F)cc3C)c(C)cc2F)c(=O)n1C(C)C [XXVIII-1, Dimethyl 1,1′-[disulphanediylbis(6-fluoro-4-methylbenzene-3,1-diyl)]bis(4-isopropyl-5-oxo-4,5-dihydro-1H-1,2,4-triazole-3-carboxylate)] | – | – | chromatographic logP [2, 3]: 4.11
Cc1cc(F)c(NC(=S)NCC(F)(F)F)cc1[S+]([O-])CC(F)(F)F (stereo not drawn) [IIb-1, 1-{2-Fluoro-4-methyl-5-[(2,2,2-trifluoroethyl)sulphinyl]phenyl}-3-(2,2,2-trifluoroethyl)thiourea] | – | – | chromatographic logP [1]: 2.3; chromatographic logP [2, 3]: 2.34
O=c1n(-c2cc(SCC(F)(F)F)c(Cl)cc2F)nc(OCC(F)(F)F)n1C1CC1 [Example 186] | 3.89 | 3.96 | –
Nc1cc(SCC(F)(F)F)c(Br)cc1F [IVa-14, 4-Bromo-2-fluoro-5-[(2,2,2-trifluoroethyl)sulphanyl]aniline] | – | – | chromatographic logP [1]: 3.12; chromatographic logP [2, 3]: 3.15
Cc1ccc(SSc2cc(Br)ccc2C)cc1Br [4-Bromo-2-[(3-bromo-4-methylphenyl)disulphanyl]-1-methylbenzene] | – | – | chromatographic logP [1]: > 7.36; chromatographic logP [2, 3]: > 7.36
Cc1cc(F)c(-n2nn[nH]c2=O)cc1SCC(F)(F)F [Example 299, 1-{2-Fluoro-4-methyl-5-[(2,2,2-trifluoroethyl)sulphanyl]phenyl}-1,4-dihydro-5H-tetrazol-5-one] | – | – | chromatographic logP [1]: 0.9; chromatographic logP [2, 4]: 2.45; chromatographic logP [2, 3]: 2.45
N#Cc1cc(F)c(-n2nc(C(F)(F)F)n(C3CC3)c2=O)cc1[S+]([O-])CC(F)(F)F (stereo not drawn) [Example 47, 4-[4-Cyclopropyl-5-oxo-3-(trifluoromethyl)-4,5-dihydro-1H-1,2,4-triazol-1-yl]-5-fluoro-2-[(2,2,2-trifluoroethyl)sulphinyl]benzonitrile] | – | – | chromatographic logP [1]: 2.84; chromatographic logP [2, 4]: 2.92; chromatographic logP [2, 3]: 2.92

Compound | logP[b] [1] | logP[a] [2] | also measured
N#Cc1cc(F)c(Br)cc1SCC(F)(F)F [VIIa-18, 4-Bromo-5-fluoro-2-[(2,2,2-trifluoroethyl)sulphanyl]benzonitrile] | – | – | chromatographic logP [1]: 3.26; chromatographic logP [2, 3]: 3.32
COc1nn(-c2cc([S+]([O-])CC(F)(F)F)c(Br)cc2F)c(=O)n1C (stereo not drawn) [Example 174] | 2.15 | 2.21 | –
CCn1c(OC)nn(-c2cc([S+]([O-])CC(F)(F)F)c(C)cc2F)c1=O (stereo not drawn) [Example 181] | 2.07 | 2.11 | –
CCc1nn(-c2cc([S+]([O-])CC(F)(F)F)c(C)cc2F)c(=O)n1-c1cccnc1 (racemic) [Example 354] | 1.97 | 1.98 | –
Cc1ccc(-n2nc(OCC(C)C)n(C)c2=O)cc1[S+]([O-])CC(F)(F)F (stereo not drawn) [Example 167] | 3.26 | 3.31 | –
N#Cc1cc(F)c(-n2nc(C(F)(F)F)oc2=O)cc1SCC(F)(F)F [Example 308] | 3.40 | 3.47 | –
N#Cc1cc(F)c(-n2nc(C(F)(F)F)n(C3CC3)c2=O)cc1F [XXIV-1, 4-[4-Cyclopropyl-5-oxo-3-(trifluoromethyl)-4,5-dihydro-1H-1,2,4-triazol-1-yl]-2,5-difluorobenzonitrile] | – | – | log P[a] ([2]; pH 2.7): 2.90; chromatographic logP ([2]; pH 2.7, log P[a]): 2.91
Cc1cc(F)c(-n2nc(C(=O)O)n(C(C)C)c2=O)cc1SCC(F)(F)F [1-{2-Fluoro-4-methyl-5-[(2,2,2-trifluoroethyl)sulphanyl]phenyl}-4-isopropyl-5-oxo-4,5-dihydro-1H-1,2,4-triazole-3-carboxylic acid] | – | – | chromatographic logP [2, 3]: 2.16
CCOc1nn(-c2ccc(C)c(SCC(F)(F)F)c2)c(=O)n1OC [Example 227] | 3.70 | 3.76 | –
C=CCSc1nn(-c2cc([S+]([O-])CC(F)(F)F)c(C)cc2F)c(=O)n1CC=C (stereo not drawn) [Example 432] | 3.05 | 2.94 | –
Cc1cc(C)c([S+]([O-])CC(F)(F)F)cc1-n1nnn(C)c1=O (racemic) [Example 297] | 1.96 | 1.96 | –
Cc1cc(F)c(-n2nnn(-c3ccc(C(F)(F)F)cc3)c2=O)cc1[S+]([O-])CC(F)(F)F (racemic) [Example 445] | 3.72 | 3.75 | –
CC(C)n1c(Br)n[nH]c1=O [5-Bromo-4-isopropyl-2,4-dihydro-3H-1,2,4-triazol-3-one] | – | – | chromatographic logP [1]: 0.83; chromatographic logP [2, 3]: 0.86
CC=Cc1nn(-c2cc(SCC(F)(F)F)c(C)cc2F)c(=O)n1C1CC1 [Example 81] | 3.49 | 3.55 | –
Cc1ccc(-n2nc(OC(C)C)n(C)c2=O)cc1[S+]([O-])CC(F)(F)F (stereo not drawn) [Example 163] | 2.80 | 2.87 | –
COC1=CC(=O)N(c2cc(SCC(F)(F)F)c(C)cc2Cl)C1 [Example 319] | 2.98 | 3.02 | –
COc1ccc(-n2nc(C(F)(F)F)n(C3CC3)c2=O)cc1[S+]([O-])CC(F)(F)F (stereo not drawn) [Example 53] | 2.93 | 3.03 | –
Cc1ccc(-n2nc(OC3CCOC3)n(C)c2=O)cc1SCC(F)(F)F (stereo not drawn) [Example 156] | 3.27 | 3.27 | –
COc1nn(-c2ccc(C(F)(F)F)c([S+]([O-])CC(F)(F)F)c2)c(=O)n1C (stereo not drawn) [Example 96, 5-Methoxy-4-methyl-2-{3-[(2,2,2-trifluoroethyl)sulphinyl]-4-(trifluoromethyl)phenyl}-2,4-dihydro-3H-1,2,4-triazol-3-one] | – | – | chromatographic logP [1]: 2.83; chromatographic logP [2, 4]: 2.89; chromatographic logP [2, 3]: 2.89
N#Cc1cc(F)c(-n2nc(C(F)(F)F)oc2=O)cc1[S+]([O-])CC(F)(F)F (racemic) [Example 309] | 2.80 | 2.86 | –
Cc1cc(F)c(-n2nc(OC3CCOC3)n(C)c2=O)cc1[S+]([O-])CC(F)(F)F (stereo not drawn) [Example 161] | 1.84 | 1.89 | –
CCCOC1=CC(=O)N(c2cc([S+]([O-])CC(F)(F)F)c(C)cc2F)C1 (stereo not drawn) [Example 333] | 2.52 | 2.57 | –

— patent US9981940B2, “Aryl sulfide derivatives and aryl sulfoxide derivatives as acaricides and insecticides” (BAYER CROPSCIENCE AKTIENGESELLSCHAFT, priority 2013, dated 2018)
